Source: ChEMBL document CHEMBL4811256, “Synthesis and evaluation of multi-target-directed ligands with BACE-1 inhibitory and Nrf2 agonist activities as potential agents against Alzheimer's disease” (Eur J Med Chem, 2021)
Calls of active or inactive are those of the source. The calls are words filed in the database; no cut-off is given here.

Key:
PC-12 [1] = experiment: Activation of Keap1-Nrf2-ARE pathway in rat PC-12 assessed as upregulation of NQO1 protein expression measured after 12 hrs by Western blot analysis; conditions: filed as activator, dose 2.5-10 µM
[2] = molecular target: T1, Nuclear factor erythroid 2-related factor 2 (Mus musculus) (UniProt Q60795); experiment: Activation of Nrf2 in mouse BV-2 cells assessed as decrease in LPS-induced NO production pretreated with compound for 2 hrs followed by LPS stimulation and further incubated for 18 hrs by Griess reagent based assay; assay type: cell-based; conditions: filed as activator, dose 10.0 µM, time 20.0 hrs
T1 sequence (whole entry): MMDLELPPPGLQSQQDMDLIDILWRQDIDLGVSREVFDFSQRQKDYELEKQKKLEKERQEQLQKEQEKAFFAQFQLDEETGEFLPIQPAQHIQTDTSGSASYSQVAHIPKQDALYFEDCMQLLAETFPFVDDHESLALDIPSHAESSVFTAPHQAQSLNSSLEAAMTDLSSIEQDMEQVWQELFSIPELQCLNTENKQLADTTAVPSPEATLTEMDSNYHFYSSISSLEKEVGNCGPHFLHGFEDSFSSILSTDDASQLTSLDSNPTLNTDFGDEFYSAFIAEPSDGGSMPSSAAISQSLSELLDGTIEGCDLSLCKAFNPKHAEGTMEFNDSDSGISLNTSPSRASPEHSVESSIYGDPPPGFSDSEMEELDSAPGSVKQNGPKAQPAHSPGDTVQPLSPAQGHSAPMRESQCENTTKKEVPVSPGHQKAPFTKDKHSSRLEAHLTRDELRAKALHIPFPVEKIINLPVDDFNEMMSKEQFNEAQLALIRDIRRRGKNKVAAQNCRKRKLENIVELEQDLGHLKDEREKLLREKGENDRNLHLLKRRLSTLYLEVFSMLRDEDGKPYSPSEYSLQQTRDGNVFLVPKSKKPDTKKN

PC-12 [3] = experiment: Protection against H2O2-induced apoptosis in rat PC-12 cells assessed as early apoptic cells at 5 uM pretreated for 12 hrs followed by H2O2 challenge by annexin V FITC/propidium iodide staining based flow cytometry (reference value: 2.2 %); assay type: functional
PC-12 [4] = experiment: Protection against H2O2-induced apoptosis in rat PC-12 cells assessed as necrotic cells at 5 uM pretreated for 12 hrs followed by H2O2 challenge by annexin V FITC/propidium iodide staining based flow cytometry (reference value: 3.7 %); assay type: functional
PC-12 [5] = experiment: Cytoprotective activity against 6-OHDA-induced oxidative stress in rat PC-12 cells assessed as decrease in cell death at 10 uM pretreated for 12 hrs followed by 6-OHDA challenge by MTT assay; assay type: functional, cell-based
PC-12 [6] = experiment: Protection against H2O2-induced apoptosis in rat PC-12 cells assessed as viable cells at 10 uM pretreated for 12 hrs followed by H2O2 challenge by annexin V FITC/propidium iodide staining based flow cytometry (reference value: 73.3 %); assay type: functional; conditions: read-out: Activity
PC-12 [7] = experiment: Activation of Keap1-Nrf2-ARE pathway in rat PC-12 assessed as upregulation of GCLC protein expression measured after 12 hrs by Western blot analysis; conditions: filed as activator, dose 2.5-10 µM
PC-12 [8] = experiment: Protection against H2O2-induced apoptosis in rat PC-12 cells assessed as early apoptic cells at 10 uM pretreated for 12 hrs followed by H2O2 challenge by annexin V FITC/propidium iodide staining based flow cytometry (reference value: 2.2 %); assay type: functional
Beta-secretase 1 = Beta-secretase 1 (Homo sapiens, UniProt P56817); experiment: Inhibition of BACE-1 (unknown origin) using Mca-Ser-Glu-Val-Asn-Leu-Asp-Ala-Glu-Phe-Lys-Dnp-OH as substrate preincubated for 30 mins followed by substrate addition and measured after 1 hr by FRET assay
PC-12 [9] = experiment: Protection against 6-OHDA-induced apoptosis in rat PC-12 cells assessed as late apoptotic cells at 5 uM pretreated for 12 hrs followed by 6-OHDA challenge by annexin V FITC/propidium iodide staining based flow cytometry (reference value: 17.3 %); assay type: functional
PC-12 [10] = experiment: Protection against H2O2-induced apoptosis in rat PC-12 cells assessed as late apoptic cells at 2.5 uM pretreated for 12 hrs followed by H2O2 challenge by annexin V FITC/propidium iodide staining based flow cytometry (reference value: 20.8 %); assay type: functional
PC-12 [11] = experiment: Protection against H2O2-induced apoptosis in rat PC-12 cells assessed as late apoptic cells at 5 uM pretreated for 12 hrs followed by H2O2 challenge by annexin V FITC/propidium iodide staining based flow cytometry (reference value: 20.8 %); assay type: functional
PC-12 [12] = experiment: Cytoprotective activity against 6-OHDA induced cell death in rat PC-12 cells assessed as decrease in LDH release pretreated for 12 hrs followed by 6-OHDA challenge by LDH assay; assay type: functional, cell-based; conditions: dose 2.5-10 µM
PC-12 [13] = experiment: Protection against 6-OHDA-induced mitochondrial dysfunction in rat PC-12 cells assessed as change in mitochondrial membrane potential at 10 uM pretreated with compound for 12 hrs followed by 6-OHDA challenge by JC-1 staining based flow cytometry (reference value: 56 %); assay type: functional
HEK293 = experiment: Inhibition of amyloid beta(1 to 40) secretion in human HEK293T cells transfected with human APP harboring Swedish double mutant K595N/M596L measured after 24 hrs by ELISA; assay type: functional, cell-based; conditions: dose 2.5-10 µM
PC-12 [14] = experiment: Protection against H2O2-induced apoptosis in rat PC-12 cells assessed as late apoptic cells at 10 uM pretreated for 12 hrs followed by H2O2 challenge by annexin V FITC/propidium iodide staining based flow cytometry (reference value: 20.8 %); assay type: functional
[15] = molecular target: T1, Nuclear factor erythroid 2-related factor 2 (Mus musculus); experiment: Activation of Nrf2 in mouse BV-2 cells assessed as upregulation of Nrf2 protein expression after 24 hrs by Western blot analysis; assay type: cell-based; conditions: filed as activator, dose 2.5-10 µM
in vitro = conditions: PAMPA
PC-12 [16] = experiment: Prevention of 6-OHDA-induced calcium overload in rat PC-12 cells assessed as reduction in intracellular free calcium pretreated with compound for 12 hrs followed by 6-OHDA challenge by Fluo-3AM based fluorescence assay; assay type: functional, cell-based; conditions: dose 2.5-10 µM
[17] = Binding affinity to N-Acetyl-L-cysteine assessed ascompound-NAC covalent adduct formation measured after 3 hrs by Q-TOF mass spectroscopy
PC-12 [18] = experiment: Activation of Keap1-Nrf2-ARE pathway in rat PC-12 assessed as upregulation of total Nrf2 protein expression at 10 uM measured after 3 hrs by Western blot analysis; conditions: filed as activator
PC-12 [19] = experiment: Activation of Keap1-Nrf2-ARE pathway in rat PC-12 assessed as upregulation of TrxR1 protein expression measured after 12 hrs by Western blot analysis; conditions: filed as activator, dose 2.5-10 µM
PC-12 [20] = experiment: Activation of Keap1-Nrf2-ARE pathway in rat PC-12 assessed as upregulation of TrxR1 protein expression at 10 uM measured after 6 to 24 hrs by Western blot analysis; conditions: filed as activator, time 6-24 hrs
PC-12 [21] = experiment: Activation of Keap1-Nrf2-ARE pathway in rat PC-12 assessed as upregulation of GCLM protein expression measured after 12 hrs by Western blot analysis; conditions: filed as activator, dose 2.5-10 µM
[22] = molecular target: T1, Nuclear factor erythroid 2-related factor 2 (Mus musculus); experiment: Activation of Nrf2 in mouse BV-2 cells assessed as upregulation of HO-1 protein expression after 24 hrs by Western blot analysis; assay type: cell-based; conditions: filed as activator, dose 2.5-10 µM
PC-12 [23] = experiment: Cytoprotective activity against H2O2- induced cell death in rat PC-12 cells assessed as decrease in LDH release pretreated for 12 hrs followed by H2O2 challenge by LDH assay; assay type: functional, cell-based; conditions: dose 2.5-10 µM

Beta-secretase 1, sequence (P56817 whole entry): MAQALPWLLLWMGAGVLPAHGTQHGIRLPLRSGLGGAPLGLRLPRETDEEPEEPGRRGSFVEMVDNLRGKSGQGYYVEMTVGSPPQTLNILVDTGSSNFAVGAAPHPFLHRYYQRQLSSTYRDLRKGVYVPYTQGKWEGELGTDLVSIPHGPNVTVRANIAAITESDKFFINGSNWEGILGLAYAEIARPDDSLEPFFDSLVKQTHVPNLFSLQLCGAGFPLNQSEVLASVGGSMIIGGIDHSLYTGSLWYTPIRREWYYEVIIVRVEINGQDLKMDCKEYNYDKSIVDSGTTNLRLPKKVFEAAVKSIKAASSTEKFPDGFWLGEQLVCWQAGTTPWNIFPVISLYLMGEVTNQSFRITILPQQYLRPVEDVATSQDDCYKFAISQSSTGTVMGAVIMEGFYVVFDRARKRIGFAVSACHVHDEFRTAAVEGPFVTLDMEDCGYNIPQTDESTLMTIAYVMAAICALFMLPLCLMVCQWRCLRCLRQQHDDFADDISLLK

In the case of `CN1C(N)=N[C@](C)(c2cc(-n3[se]c4cc(F)ccc4c3=O)ccc2F)CS1(=O)=O`, the Activity (PC-12 [1]) is reported as “Active”, the Activity [2] is reported as “Active” and the Activity (PC-12 [3]) is reported as 1.6%. The Activity (PC-12 [4]) was 1.3%, the Activity (PC-12 [5]) was “Active” and the viability at 10 µM (PC-12 [6]) was 92.6%. The Activity (PC-12 [7]) was “Active”, the Activity (PC-12 [8]) was 2.1% and the IC50 (Beta-secretase 1) was 1060 nM. The Activity (PC-12 [9]) was 11.8%, the Activity (PC-12 [10]) was 12.3% and the Activity (PC-12 [11]) was 8.1%. For the same compound, the Activity (PC-12 [12]) was “Dose-Dependent Effect”, the Activity (PC-12 [13]) was 78.6% and the inhibition (HEK293) was “Active”. The Activity (PC-12 [14]) was 4.7%, the Activity [15] was “Dose-Dependent Effect” and the Papp at 16 h (in vitro) was 16 ×10⁻⁶ cm/s. The Activity (PC-12 [16]) was “Dose-Dependent Effect”, the Activity [17] was “Active” and the Activity (PC-12 [18]) was “Active”. For the same compound, the Activity (PC-12 [19]) was “Active”, the Activity (PC-12 [20]) was “Active” and the Activity (PC-12 [21]) was “Active”. For the same compound, the Activity [22] was “Dose-Dependent Effect” and the Activity (PC-12 [23]) was “Dose-Dependent Effect”.
